In ChEMBL document CHEMBL5137036, “Design and synthesis of highly TRAIL expression HDAC inhibitors based on ONC201 to promote apoptosis of colorectal cancer” (Eur J Med Chem, 2022):
Active and inactive are the calls of the source. The rule behind the calls is not given here.

Key:
[1] = tested on: HCT-116; test: Antiproliferative activity against human HCT-116 cells assessed as inhibition of cell growth incubated for 72 hrs by luminescence based analysis; format: functional; conditions: HCT-116, 72 h
[2] = tested on: MV4-11; test: Antiproliferative activity against human MV4-11 cells assessed as inhibition of cell growth incubated for 72 hrs by luminescence based analysis; format: functional; conditions: MV4-11, 72 h
[3] = tested on: HepG2; test: Antiproliferative activity against human HepG2 cells assessed as inhibition of cell growth incubated for 72 hrs by luminescence based analysis; format: functional; conditions: HepG2, 72 h
[4] = biological target: T1, Histone deacetylase 1 (Homo sapiens, UniProt Q13547); test: Inhibition of human HDAC1 using RHKKAc fluorogenic peptide as substrate preincubated for 10 mins followed by substrate addition by fluorescence based analysis
T1 sequence (Q13547 whole entry): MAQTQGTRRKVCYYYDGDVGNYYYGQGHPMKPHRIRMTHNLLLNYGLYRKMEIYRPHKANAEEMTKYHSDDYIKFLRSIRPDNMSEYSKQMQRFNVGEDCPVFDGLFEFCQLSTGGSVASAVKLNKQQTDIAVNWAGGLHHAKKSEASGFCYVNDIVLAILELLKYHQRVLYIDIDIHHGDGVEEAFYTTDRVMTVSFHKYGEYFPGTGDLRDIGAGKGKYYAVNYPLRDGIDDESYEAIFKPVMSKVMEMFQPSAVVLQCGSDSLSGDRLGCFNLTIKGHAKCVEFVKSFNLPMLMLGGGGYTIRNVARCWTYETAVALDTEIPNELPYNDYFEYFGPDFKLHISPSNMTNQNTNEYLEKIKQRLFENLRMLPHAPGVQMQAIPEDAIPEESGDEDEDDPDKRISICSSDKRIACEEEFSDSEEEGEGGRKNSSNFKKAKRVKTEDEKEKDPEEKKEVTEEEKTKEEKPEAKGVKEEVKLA

[5] = biological target: T1, Histone deacetylase 1; test: Inhibition of HDAC1 in human HCT-116 cells assessed as increase in DR5 protein expression at 0.5 uM incubated for 12 hrs by Western blot analysis; format: cell-based
[6] = biological target: T1, Histone deacetylase 1; test: Inhibition of human HDAC1 assessed as residual activity at 1 uM using RHKKAc fluorogenic peptide as substrate preincubated for 10 mins followed by substrate addition by fluorescence based analysis relative to control
[7] = tested on: HCT-116; test: Antiproliferative activity against human HCT-116 cells assessed as residual activity at 2 uM incubated for 72 hrs by luminescence based analysis relative to control; format: functional
[8] = tested on: HCT-116; test: Induction of apoptosis in human HCT-116 cells assessed as late apoptotic cells at 0.5 uM incubated for 24 hrs by AnnexinV-FITC/PI staining based flow cytometry (reference value: 0.82 %); format: functional
[9] = tested on: HCT-116; test: Induction of apoptosis in human HCT-116 cells assessed as dead cells at 0.5 uM incubated for 24 hrs by AnnexinV-FITC/PI staining based flow cytometry (reference value: 4.62 %); format: functional
[10] = tested on: HCT-116; test: Induction of apoptosis in human HCT-116 cells assessed as early apoptotic cells at 0.5 uM incubated for 24 hrs by AnnexinV-FITC/PI staining based flow cytometry (reference value: 0.93 %); format: functional
[11] = tested on: HCT-116; test: Induction of apoptosis in human HCT-116 cells assessed as viable cells at 0.5 uM incubated for 24 hrs by AnnexinV-FITC/PI staining based flow cytometry (reference value: 93.64%); format: functional; conditions: read-out: Activity

Structure (SMILES) | IC50 [2] | IC50 [3] | IC50 [4] | Activity [6] | other results
Nc1ccccc1NC(=O)c1ccc(CN2C(=O)C3=C(CCN(Cc4ccccc4)C3)N3CCN=C23)cc1 | 753 nM | 4000 nM | 198 nM | – | IC50 [1]: 1450 nM; inhibition [5]: Active
Nc1ccccc1NC(=O)c1ccc(CN2CCC3=C(C2)C(=O)N(Cc2cccc(F)c2)C2=NCCN23)cc1 | – | – | – | 49.1% | –
CNC1=C(CCCc2ccccc2)C(=O)N(Cc2ccc(C(=O)Nc3ccccc3N)cc2)C2=NCCN21 | – | – | – | 63.8% | –
Nc1ccccc1NC(=O)c1ccc(CN2C(=O)C3=C(CCN(Cc4ccc(Cl)c(C(F)(F)F)c4)C3)N3CCN=C23)cc1 | – | – | – | 52.2% | –
NC1=C(CCCc2ccccc2)C(=O)N(Cc2ccc(C(=O)Nc3ccc(F)cc3N)cc2)C2=NCCN21 | – | – | 413 nM | – | –
Nc1ccccc1NC(=O)c1ccc(CN2C(=O)C3=C(CCN(C(=O)/C=C/c4ccc(Cl)cc4F)C3)N3CCN=C23)cc1 | 1450 nM | 6170 nM | 278 nM | – | IC50 [1]: 662 nM
NC1=C(CCNC(=O)c2ccccc2)C(=O)N(Cc2ccc(C(=O)Nc3ccccc3N)cc2)C2=NCCN21 | 828 nM | 1270 nM | 273 nM | – | Activity [7]: 88.98%
Nc1cc(F)ccc1NC(=O)c1ccc(CN2C(=O)C3=C(CCN(Cc4ccccc4)C3)N3CCN=C23)cc1 | – | – | – | 78.3% | –
Nc1cc(F)ccc1NC(=O)c1ccc(CNC(=O)/C=C/c2cccnc2)cc1 [TUCIDINOSTAT] | 783 nM | 2000 nM | – | – | Activity [8]: 1.66%; Activity [9]: 8.27%; Activity [10]: 1.22%; viability at 0.5 µM [11]: 88.8%
Cc1ccccc1CN1C(=O)C2=C(CCN(Cc3ccc(C(=O)Nc4ccccc4N)cc3)C2)N2CCN=C12 | 801 nM | 3560 nM | 253 nM | – | IC50 [1]: 1080 nM
CC(c1ccccc1)N1C(=O)C2=C(CCN(Cc3ccc(C(=O)Nc4ccccc4N)cc3)C2)N2CCN=C21 (stereo not drawn) | – | – | – | 46.3% | –
NC1=C(CCCc2ccccc2)C(=O)N(Cc2ccc(C(=O)Nc3ccccc3N)cc2)C2=NCCN21 | 1270 nM | 4490 nM | 66.9 nM | – | IC50 [1]: 673 nM; inhibition [5]: Active
Cc1ccccc1CN1CCC2=C(C1)C(=O)N(Cc1ccc(C(=O)Nc3ccc(F)cc3N)cc1)C1=NCCN12 | – | – | – | 68% | –
Nc1ccccc1NC(=O)c1ccc(CN2CCC3=C(C2)C(=O)N(Cc2cccnc2)C2=NCCN23)cc1 | – | – | – | 46.4% | –
Nc1ccccc1NC(=O)c1ccc(CN2C(=O)C3=C(CCN(Cc4ccc5ccccc5c4)C3)N3CCN=C23)cc1 | – | – | – | 58.1% | –
Nc1ccccc1NC(=O)c1ccc(CN2C(=O)C(CCCc3ccccc3)=C(O)N3CCN=C23)cc1 | – | – | 600 nM | – | –
COc1ccc(CN2CCC3=C(C2)C(=O)N(Cc2ccc(C(=O)Nc4ccccc4N)cc2)C2=NCCN23)cc1 | – | – | – | 44.4% | –
Cc1ccc(/C=C/C(=O)N2CCC3=C(C2)C(=O)N(Cc2ccc(C(=O)Nc4ccccc4N)cc2)C2=NCCN23)o1 | 2430 nM | 4520 nM | 377 nM | – | Activity [7]: 79.55%
N#Cc1ccc(CN2C(=O)C3=C(CCN(Cc4ccc(C(=O)Nc5ccccc5N)cc4)C3)N3CCN=C23)cc1 | 957 nM | 4720 nM | 174 nM | – | IC50 [1]: 967 nM
Nc1ccccc1NC(=O)c1ccc(CN2C(=O)C3=C(CCN(Cc4nc5ccccc5[nH]4)C3)N3CCN=C23)cc1 | – | – | – | 58.3% | –
